From ChEMBL document CHEMBL3044623, “Feeding cessation effects of chlorantraniliprole, a new anthranilic diamide insecticide, in comparison with several insecticides in distinct chemical classes and mode-of-action groups” (2009)

Tests used:
Type in all cases: functional
Trichoplusia ni [1] = test: Antifeedant activity against third-instar larval stage of Trichoplusia ni (cabbage looper) infested compound-treated leaf assessed as reduction in feeding damage at 187 mg a.i/L after 48 hr by leaf disk assay relative to untreated control; set-up: scale not given: the % may be the effect or the level left
Trichoplusia ni [2] = test: Antifeedant activity against third-instar larval stage of Trichoplusia ni (cabbage looper) infested compound-treated leaf assessed as time required to stop feeding at 187 mg a.i/L after 48 hr by leaf disk assay (reference value: > 2880 min)
Spodoptera exigua [3] = test: Antifeedant activity against third-instar larval stage of Spodoptera exigua infested compound-treated leaf assessed as time required to stop feeding at 187 mg a.i/L after 48 hr by leaf disk assay (reference value: > 2880 min)
Spodoptera exigua [4] = test: Antifeedant activity against third-instar larval stage of Spodoptera exigua infested compound-treated leaf assessed as reduction in feeding damage at 187 mg a.i/L after 48 hr by leaf disk assay relative to untreated control; set-up: scale not given: the % may be the effect or the level left
Helicoverpa zea [5] = test: Antifeedant activity against third-instar larval stage of Helicoverpa zea (corn earworm) infested compound-treated leaf assessed as time required to stop feeding at 187 mg a.i/L after 48 hr by leaf disk assay (reference value: > 2880 min)
Helicoverpa zea [6] = test: Antifeedant activity against third-instar larval stage of Helicoverpa zea (corn earworm) infested compound-treated leaf assessed as reduction in feeding damage at 187 mg a.i/L after 48 hr by leaf disk assay relative to untreated control; set-up: scale not given: the % may be the effect or the level left
Trichoplusia ni [7] = test: Antifeedant activity against third-instar larval stage of Trichoplusia ni (cabbage looper) infested compound-treated leaf assessed as reduction in feeding damage at 167 mg a.i/L after 48 hr by leaf disk assay relative to untreated control; set-up: scale not given: the % may be the effect or the level left
Plutella xylostella [8] = test: Antifeedant activity against third-instar larval stage of Plutella xylostella (diamondback moth) infested compound-treated leaf assessed as reduction in feeding damage at 167 mg a.i/L after 48 hr by leaf disk assay relative to untreated control; set-up: scale not given: the % may be the effect or the level left
Plutella xylostella [9] = test: Antifeedant activity against third-instar larval stage of Plutella xylostella (diamondback moth) infested compound-treated leaf assessed as time required to stop feeding at 167 mg a.i/L after 48 hr by leaf disk assay (reference value: > 2880 min)
Trichoplusia ni [10] = test: Antifeedant activity against third-instar larval stage of Trichoplusia ni (cabbage looper) infested compound-treated leaf assessed as time required to stop feeding at 167 mg a.i/L after 48 hr by leaf disk assay (reference value: > 2880 min)
Spodoptera exigua [11] = test: Antifeedant activity against third-instar larval stage of Spodoptera exigua infested compound-treated leaf assessed as time required to stop feeding at 167 mg a.i/L after 48 hr by leaf disk assay (reference value: > 2880 min)
Spodoptera exigua [12] = test: Antifeedant activity against third-instar larval stage of Spodoptera exigua infested compound-treated leaf assessed as reduction in feeding damage at 167 mg a.i/L after 48 hr by leaf disk assay relative to untreated control; set-up: scale not given: the % may be the effect or the level left
Helicoverpa zea [13] = test: Antifeedant activity against third-instar larval stage of Helicoverpa zea (corn earworm) infested compound-treated leaf assessed as reduction in feeding damage at 167 mg a.i/L after 48 hr by leaf disk assay relative to untreated control; set-up: scale not given: the % may be the effect or the level left
Helicoverpa zea [14] = test: Antifeedant activity against third-instar larval stage of Helicoverpa zea (corn earworm) infested compound-treated leaf assessed as time required to stop feeding at 167 mg a.i/L after 48 hr by leaf disk assay (reference value: > 2880 min)
Trichoplusia ni [15] = test: Antifeedant activity against third-instar larval stage of Trichoplusia ni (cabbage looper) infested compound-treated leaf assessed as reduction in feeding damage at 40 mg a.i/L after 48 hr by leaf disk assay relative to untreated control; set-up: scale not given: the % may be the effect or the level left
Plutella xylostella [16] = test: Antifeedant activity against third-instar larval stage of Plutella xylostella (diamondback moth) infested compound-treated leaf assessed as reduction in feeding damage at 40 mg a.i/L after 48 hr by leaf disk assay relative to untreated control; set-up: scale not given: the % may be the effect or the level left
Plutella xylostella [17] = test: Antifeedant activity against third-instar larval stage of Plutella xylostella (diamondback moth) infested compound-treated leaf assessed as time required to stop feeding at 40 mg a.i/L after 48 hr by leaf disk assay (reference value: > 2880 min)
Helicoverpa zea [18] = test: Antifeedant activity against third-instar larval stage of Helicoverpa zea (corn earworm) infested compound-treated leaf assessed as reduction in feeding damage at 40 mg a.i/L after 48 hr by leaf disk assay relative to untreated control; set-up: scale not given: the % may be the effect or the level left
Trichoplusia ni [19] = test: Antifeedant activity against third-instar larval stage of Trichoplusia ni (cabbage looper) infested compound-treated leaf assessed as time required to stop feeding at 40 mg a.i/L after 48 hr by leaf disk assay (reference value: > 2880 min)
Spodoptera exigua [20] = test: Antifeedant activity against third-instar larval stage of Spodoptera exigua infested compound-treated leaf assessed as time required to stop feeding at 40 mg a.i/L after 48 hr by leaf disk assay (reference value: > 2880 min)
Spodoptera exigua [21] = test: Antifeedant activity against third-instar larval stage of Spodoptera exigua infested compound-treated leaf assessed as reduction in feeding damage at 40 mg a.i/L after 48 hr by leaf disk assay relative to untreated control; set-up: scale not given: the % may be the effect or the level left
Helicoverpa zea [22] = test: Antifeedant activity against third-instar larval stage of Helicoverpa zea (corn earworm) infested compound-treated leaf assessed as time required to stop feeding at 40 mg a.i/L after 48 hr by leaf disk assay (reference value: > 2880 min)

## CC(C)[C@H](C(=O)O[C@H](C#N)c1cccc(Oc2ccccc2)c1)c1ccc(Cl)cc1
Trichoplusia ni [1]
  Activity: 99.9%
Trichoplusia ni [2]
  Time: 5 min
Spodoptera exigua [3]
  Time: 6.4 min
Spodoptera exigua [4]
  Activity: 99.9%
Helicoverpa zea [5]
  Time: 3.4 min
Helicoverpa zea [6]
  Activity: 99.9%

## CNC(=O)c1cc(Cl)cc(C)c1NC(=O)c1cc(Br)nn1-c1ncccc1Cl [CHLORANTRANILIPROLE]
Trichoplusia ni [7]
  Activity: 99.4%
Plutella xylostella [8]
  Activity: 99.4%
Plutella xylostella [9]
  Time: 15.4 min
Trichoplusia ni [10]
  Time: 23.4 min
Spodoptera exigua [11]
  Time: 25.3 min
Spodoptera exigua [12]
  Activity: 99%
Helicoverpa zea [13]
  Activity: 99.2%
Helicoverpa zea [14]
  Time: 20.3 min

## CC[C@H](C)C1O[C@]2(C=C[C@@H]1C)C[C@@H]1C[C@@H](C/C=C(\C)[C@@H](O[C@H]3C[C@H](OC)[C@@H](O[C@H]4C[C@H](OC)[C@H](NC)[C@H](C)O4)[C@H](C)O3)[C@@H](C)/C=C/C=C3\CO[C@@H]4[C@H](O)C(C)=C[C@@H](C(=O)O1)[C@]34O)O2.O=C(O)c1ccccc1 (some centres not stated) [EMAMECTIN BENZOATE]
Trichoplusia ni [15]
  Activity: 95.7%
Plutella xylostella [16]
  Activity: 97.9%
Plutella xylostella [17]
  Time: 55.9 min
Helicoverpa zea [18]
  Activity: 93.9%
Trichoplusia ni [19]
  Time: 91.9 min
Spodoptera exigua [20]
  Time: 139 min
Spodoptera exigua [21]
  Activity: 92.4%
Helicoverpa zea [22]
  Time: 151.8 min
